Results: article PMC11696576, “Next generation thiazolyl ketone inhibitors of cytosolic phospholipase A2 α for targeted cancer therapy” (Nature Communications, 2025)
Several values for one entry are separate records, joined by “and”; a condition that tells them apart may be missing. Identical values can stand only once.

Experiments:
HL-60 cells = experiment: cell viability, resazurin assay, HL-60; type: cell-based, human; details: for cell viability relative to 0 µM = 100 (Figure S7b): listed as AVX420
Excerpt: Bjørn Tore Gjertsen (University of Bergen, Norway). […] The cell lines were not authenticated.
Figure S7. Sensitivity of cell lines derived from hematological malignancies. a. cell viability expressed as relative light units ( RLU) is plotted for all cell lines in the screen that were de-rived from hematological malignancies. b. corresponding IC50 values calculated by non-linear regression analysis. c. Cell viability assessed by resazurin assays in MV-4-11 and HL-60 cells.
Data were normalized to the vehicle-treated control (100%) and are the mean of 4 biological replicates ±stdev (MV-4-11) and 5 biological replicates ±stdev (HL-60), Non-linear regres- […]

CD3+ T-cells = experiment: viability of healthy T-cells, propidium iodide exclusion; type: cell-based
Description: (§1) Data are the mean ± stdev of 3 biological replicates. […] Data are the mean ± stdev of 3 biological replicates.
(§2) Propidium iodide exclusion was used to assess cell death by flow cytometry. After treatment, the cells were washed once with PBS and stained with 1.4 μg/mL propidium iodide (PI) for 5 min before quantification of PI negative and positive cells using a CytoFLEX flow cytometer (California, United States). An example of the gating strategy to assess PI staining can be found in Fig. S8c. […]
The propidium iodide exclusion assay was used to assess vi-ability of ungated PBMCs treated with AVX420 at the indicated doses for 24 hours .
(§3) Data are the mean ±stdev from 8 biological replicates (1-16 µM) and 5 biological rep- […]
(§4) iodide exclusion in CD3+ lymphocytes (T-cells). Cells appearing in the bottom right quadrant are PI-negative (live) T-cells while cells in the top right quadrant are PI-posi- […]
(§5) (1 picture or pasted object on this page, not shown here)

CCRF-CEM cells = experiment: intracellular ROS, ROS-red staining and flow cytometry, CCRF-CEM; type: cell-based, human; set-up: ROS Negative Cells: unit not given here; details: for ROS Negative Cells / ROS Positive Cells: listed as AVX420
Description: as §1
Rather, when combined with AVX420, exogenous AA augmented cell death (Fig. 6e). […] The response occurred within 1 h, peaked at 8–12 h, and preceded the loss of cell viability (Fig. S9a, b).
After treatment, cells were stained with cellular ROS Assay Kit (Cat. No. ab186029; Abcam, Cambridge, United Kingdom) following the manufacturer’s instructions, and ROS-positive cells were quantified by flow cytometry using either the NovoCyte flow cytometer, and Novoexpress Software v1.5.0 from Agilent Technologies (Santa Clara, USA) or the CytoFLEX flow cytometer and CytExpert analysis software v 2.5 from Beckman Coulter (California, United States). An example showing the gating strategy used to assess ROS-Red staining is found in Fig. S9d.
Figure S9. Intracellular ROS accumulation and cell death. a. Time dependency of the in-crease in iROS following treatment with AVX420 in CCRF-CEM cells as measured by ROS-red stain-ing. Data are the mean ±stdev from ≥2 biological replicates b. […]
±stdev of ≥2 biological replicates c. intracellular ROS measurements in CCRF-CEM cells treated with 0.5 µM AVX420 in the presence of 20 µM arachidonic acid (AA) or 5 µM liproxstatin (Lip) for 4 hours. Data are the mean ± stdev of 2 biological replicates. d. […]
analysis of ROS Red staining by flow cytometry. (i) Gating of live cells using FSC-H versus SSC-H.
(ii) Gating based on ROS Deep Red staining under control conditions and after treatment with (iii) […]
as §5

[1] = viability of PBMCs (CTG and propidium iodide exclusion); type: cell-based, human; details: human, read-out: PBMC viability relative to 0 µM = 100 (Figure S8a)
Description: as §2
(§6) cells. a. CTG assays were used to assess viability of PBMCs isolated from human blood after treatment with vehicle control (DMSO) or AVX420 at the indicated doses for either (i) 24 hours or (ii) 72 hours. Data are the mean ±stdev of 4 or 5 biological replicates respectively. b. The propidium iodide exclusion assay was used to assess vi-ability of ungated PBMCs treated with AVX420 at the indicated doses for 24 hours .
as §3, §4, §5

PBMCs = experiment: as above; type: cell-based, human; details: for PI Negative (Figure S8b) / PI Positive (Figure S8b): replicates; for PI Negative (Figure S8b) / PI Positive (Figure S8b) / PBMC viability relative to 0 µM = 100 (Figure S8a): listed as AVX420
Description: as §2, §6, §3, §4, §5

[2] = Figure 6c, 32 µM, listed as AVX420
[3] = up to a maximum dose tested of 32 µM

For `CCCCCCCOc1ccc(OCC(=O)c2nc(C(=O)OC)cs2)cc1` [GK420], the “cell viability relative to 0 µM = 100 (Figure S7b)” value (HL-60 cells; HL-60, 1 µM, rep1-5) was 97.3013 and 90.6778 and 115.865 and 99.353 and 90.3923, the “cell viability relative to 0 µM = 100 (Figure S7b)” value (HL-60 cells; HL-60, 3 µM, rep1-5) was 90.5903 and 85.7617 and 98.8696 and 77.2301 and 87.8872 and the “cell viability relative to 0 µM = 100 (Figure S7b)” value (HL-60 cells; HL-60, 5 µM, rep1-5) was 71.3359 and 44.5692 and 65.87 and 61.5884 and 62.96. For the same compound, the “cell viability relative to 0 µM = 100 (Figure S7b)” value (HL-60 cells; HL-60, 7 µM, rep1-5) was 63.2164 and 43.3688 and 54.7108 and 42.3668 and 54.7116, the “cell viability relative to 0 µM = 100 (Figure S7b)” value (HL-60 cells; HL-60, 10 µM, rep1-5) was 36.7957 and 43.3263 and 38.5629 and 49.5907 and the “cell viability relative to 0 µM = 100 (Figure S7b)” value (HL-60 cells; HL-60, 12 µM, rep1-5) was 32.4548 and 37.5058 and 42.0594 and 45.299. The “cell viability relative to 0 µM = 100 (Figure S7b)” value (HL-60 cells; HL-60, 15 µM, rep1-5) was 31.4644 and 36.8417 and 35.3195 and 49.7069, the “cell viability relative to 0 µM = 100 (Figure S7b)” value (HL-60 cells; HL-60, 20 µM, rep1-5) was 29.4668 and 34.076 and 29.9279 and 43.7902 and the viability at 10 µM (HL-60 cells; Homo sapiens, HL-60, HL-60, 10 µM, rep1-5, read-out: cell viability relative to 0 µM = 100 (Figure S7b)) was 49.4%. For the same compound, the viability at 12 µM (HL-60 cells; Homo sapiens, HL-60, HL-60, 12 µM, rep1-5, read-out: cell viability relative to 0 µM = 100 (Figure S7b)) was 45.2%, the viability at 15 µM (HL-60 cells; Homo sapiens, HL-60, HL-60, 15 µM, rep1-5, read-out: cell viability relative to 0 µM = 100 (Figure S7b)) was 42.5% and the viability at 20 µM (HL-60 cells; Homo sapiens, HL-60, HL-60, 20 µM, rep1-5, read-out: cell viability relative to 0 µM = 100 (Figure S7b)) was 36.3%. For the same compound, the IC50 (HL-60 cells; Homo sapiens, HL-60, resazurin assay) was 4.6 µM, the “PI Negative” value (CD3+ T-cells; Figure 6c, 2 µM, listed as AVX420) was 96 and 98 and 95 and 91 and 89 and 97 and the “PI Negative” value (CD3+ T-cells; Figure 6c, 8 µM, listed as AVX420) was 96 and 98 and 94 and 90 and 87 and 95 and 93. For the same compound, the “PI Negative” value (CD3+ T-cells; Figure 6c, 16 µM, listed as AVX420) was 96 and 98 and 94 and 90 and 84 and 91, the “PI Negative” value (CD3+ T-cells; [2]) was 92 and 94 and 89 and 91 and 90 and the “PI Positive” value (CD3+ T-cells; [2]) was 6 and 11 and 9 and 10 and 8. The “effect on healthy CD3+ T-cells” value (CD3+ T-cells; [3]) was “no effect”, the “time of iROS peak” value (CCRF-CEM cells; CCRF-CEM (Fig. S9a)) was 8 to 12 h and the “time to iROS response” value (CCRF-CEM cells; CCRF-CEM (Fig. S9a)) was at most 1 h. For the same compound, the “ROS Negative Cells” value (CCRF-CEM cells; CCRF-CEM, 0.25 µM) was 70 and 65 and 71 and 61, the “ROS Positive Cells” value (CCRF-CEM cells; CCRF-CEM, 0.25 µM) was 39 and 30 and 35 and 29 and the “ROS Negative Cells” value (CCRF-CEM cells; CCRF-CEM, 0.5 µM) was 34 and 29 and 30 and 32 and 33. For the same compound, the “ROS Positive Cells” value (CCRF-CEM cells; CCRF-CEM, 0.5 µM) was 70 and 68 and 67 and 66 and 71, the “ROS Negative Cells” value (CCRF-CEM cells; CCRF-CEM, 1 µM) was 13 and 15 and 12 and 11 and the “ROS Positive Cells” value (CCRF-CEM cells; CCRF-CEM, 1 µM) was 89 and 87 and 85 and 88. The “ROS Negative Cells” value (CCRF-CEM cells; CCRF-CEM, 2 µM) was 8 and 6 and 9 and 10, the “ROS Positive Cells” value (CCRF-CEM cells; CCRF-CEM, 2 µM) was 90 and 92 and 94 and 91 and the “intracellular ROS (iROS)” value (CCRF-CEM cells; CCRF-CEM, 4 h) was “dose-dependent increase”. The viability at 72 h, 1 µM ([1]; PBMC 72H, 1 µM, rep1-5) was 103%, the viability at 24 h, 0.5 µM ([1]; PMBC 24H, 0.5 µM, rep1-4) was 99% and the viability at 24 h, 1 µM ([1]; PMBC 24H, 1 µM, rep1-4) was 102%. The viability at 24 h, 2 µM ([1]; PMBC 24H, 2 µM, rep1-4) was 98%, the viability at 24 h, 4 µM ([1]; PMBC 24H, 4 µM, rep1-4) was 101% and the viability at 24 h, 8 µM ([1]; PMBC 24H, 8 µM, rep1-4) was 102%. For the same compound, the viability at 24 h, 16 µM ([1]; PMBC 24H, 16 µM, rep1-4) was 102%, the viability at 24 h, 32 µM ([1]; PMBC 24H, 32 µM, rep1-4) was 101% and the “PI Negative (Figure S8b)” value (PBMCs; 0.5 µM) was 87 (3×) and 88 and 86 (2×) and 81 and 79. The “PI Positive (Figure S8b)” value (PBMCs; 0.5 µM) was 12 and 14 (2×) and 13 (3×) and 19 and 21, the “PI Negative (Figure S8b)” value (PBMCs; 1 µM) was 86 (3×) and 88 and 87 (2×) and 81 and 79 and the “PI Positive (Figure S8b)” value (PBMCs; 1 µM) was 12 and 14 (3×) and 13 (2×) and 19 and 21. For the same compound, the “PI Negative (Figure S8b)” value (PBMCs; 2 µM) was 86 (3×) and 88 and 85 and 81 and 79 and 87, the “PI Positive (Figure S8b)” value (PBMCs; 2 µM) was 12 and 15 and 14 (3×) and 19 and 21 and 13 and the “PI Negative (Figure S8b)” value (PBMCs; 4 µM) was 87 (2×) and 88 and 85 and 86 and 80 and 79 and 84. The “PI Positive (Figure S8b)” value (PBMCs; 4 µM) was 12 and 15 and 14 and 20 and 21 and 13 (2×) and 16, the “PI Negative (Figure S8b)” value (PBMCs; 8 µM) was 86 and 88 and 84 (2×) and 80 and 77 and 85 and 83 and the “PI Positive (Figure S8b)” value (PBMCs; 8 µM) was 12 and 16 (2×) and 20 and 23 and 15 and 17 and 14. For the same compound, the “PI Negative (Figure S8b)” value (PBMCs; 16 µM) was 86 and 88 and 84 (3×) and 80 and 74 and 81, the “PI Positive (Figure S8b)” value (PBMCs; 16 µM) was 12 and 16 (3×) and 20 and 26 and 19 and 14 and the “PI Negative (Figure S8b)” value (PBMCs; 32 µM) was 82 and 84 and 79 and 81 and 80. The “PI Positive (Figure S8b)” value (PBMCs; 32 µM) was 16 and 21 and 19 and 20 and 18, the “PBMC viability relative to 0 µM = 100 (Figure S8a)” value (PBMCs; PBMC 72H, 0.5 µM, rep1-5) was 100 and 93 (2×) and 120 and the “PBMC viability relative to 0 µM = 100 (Figure S8a)” value (PBMCs; PBMC 72H, 1 µM, rep1-5) was 91 and 93 and 110 and 97. For the same compound, the “PBMC viability relative to 0 µM = 100 (Figure S8a)” value (PBMCs; PBMC 72H, 4 µM, rep1-5) was 111 and 89 and 93 and 118 and 88, the “PBMC viability relative to 0 µM = 100 (Figure S8a)” value (PBMCs; PBMC 72H, 8 µM, rep1-5) was 113 and 75 and 87 and 109 and 93 and the “PBMC viability relative to 0 µM = 100 (Figure S8a)” value (PBMCs; PBMC 72H, 16 µM, rep1-5) was 109 and 80 and 83 and 90. The “PBMC viability relative to 0 µM = 100 (Figure S8a)” value (PBMCs; PBMC 72H, 32 µM, rep1-5) was 104 and 88 and 82 and 76 and 96, the “PBMC viability relative to 0 µM = 100 (Figure S8a)” value (PBMCs; PMBC 24H, 0.5 µM, rep1-4) was 100 and 97 (2×) and the “PBMC viability relative to 0 µM = 100 (Figure S8a)” value (PBMCs; PMBC 24H, 1 µM, rep1-4) was 94 and 95. For the same compound, the “PBMC viability relative to 0 µM = 100 (Figure S8a)” value (PBMCs; PMBC 24H, 2 µM, rep1-4) was 97, the “PBMC viability relative to 0 µM = 100 (Figure S8a)” value (PBMCs; PMBC 24H, 4 µM, rep1-4) was 97 and 96 and the “PBMC viability relative to 0 µM = 100 (Figure S8a)” value (PBMCs; PMBC 24H, 8 µM, rep1-4) was 105. The “PBMC viability relative to 0 µM = 100 (Figure S8a)” value (PBMCs; PMBC 24H, 32 µM, rep1-4) was 104 and the “effect on healthy PBMCs” value (PBMCs; [3]) was “no effect”.
